Test results published in patent US5399790A, “Non-steroid and non-prostanoid inhibitors of steroid and prostaglandin transforming enzymes” (Trustees of The University of Pennsylvania, priority 1993, dated 1995).
“Also recorded” adds a separate entry of the source.

What was measured:
3α-HSD [1] = target: T1, 3α-HSD (Rattus norvegicus, UniProt P23457); experiment: chromatography of inactivated 3α-HSD on the immobilized nucleotide analog Cibacron Blue; format: binding
T1 construct: the purified 3α-HSD of rat liver cytosol; from tissue; host or cells: rat liver (cytosol)
T1 sequence (P23457 1-322): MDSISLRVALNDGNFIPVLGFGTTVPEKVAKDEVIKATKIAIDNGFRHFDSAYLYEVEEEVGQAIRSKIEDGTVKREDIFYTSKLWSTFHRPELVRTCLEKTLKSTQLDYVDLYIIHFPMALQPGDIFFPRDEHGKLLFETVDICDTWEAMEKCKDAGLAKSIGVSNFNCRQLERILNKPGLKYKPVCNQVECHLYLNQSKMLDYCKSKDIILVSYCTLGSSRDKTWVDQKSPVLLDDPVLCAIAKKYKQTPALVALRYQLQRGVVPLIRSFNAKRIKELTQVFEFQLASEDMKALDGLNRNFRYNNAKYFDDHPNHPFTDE
From the text: (§1) Three types of experimental evidence indicate that both the enone (III) and the acetylenic ketone (IV) alkylate the pyridine nucleotide binding domain in preference to the steroid binding site of the enzyme. […] Third, chromatographic experiments using the immobilized nucleotide analog Cibacron Blue indicate that both native enzyme and enzyme inactivated with the steroid affinity alkylator, 17β-bromoacetoxy-5α-androstan-17β-ol-3-one, bind tightly to the immobilized nucleotide analog. By contrast, enzyme inactivated by either (III) or (IV) has no affinity for the immobilized nucleotide analogue. This experimental evidence implies that the alkylators (III) and (IV) covalently modify the nucleotide binding domain of 3α-HSD.

[2] = test system: 3α-HSD and 3(17)β-HSD (Pseudomonas testosteroni), 3α,20α-HSD (Streptomyces hydrogenase), 20α-HSD (rat ovary), 3β-HSD (rat liver), alcohol dehydrogenase …; experiment: broad screen of the alcohols as suicide substrates of dehydrogenases; format: biochemical; settings: eight dehydrogenases screened
Protocol: A broad screen was conducted in which the allylic (I) and acetylenic alcohols (II) were examined as suicide substrates of the following enzymes: 3α-HSD and 3(17)β-HSD (Pseudomonas testosteroni), 3α,20α-HSD (Streptomyces hydrogenase), 20α-HSD (rat ovary), 3β-HSD (rat liver), alcohol dehydrogenase (yeast), lactate dehydrogenase (porcine heart) and 3α-HSD (rat liver).

3α-HSD [3] = target: T1, 3α-HSD; experiment: time dependent inactivation of purified 3α-HSD; format: biochemical; settings: for return of enzyme activity after inactivation: gel filtration or extensive dialysis of the inactivated enzyme; for inactivation of 3α-HSD: result in words
Protocol: 3α-HSD (24 μM of purified enzyme) was incubated in systems (30 μl) containing 1.2 mM NAD^+, 10 mM potassium phosphate buffer pH 7.0, 1 mM EDTA and 5% acetonitrile as a co-solvent. Enzyme activity was followed over time by diluting an aliquot of the incubation mixture into a 1 ml assay containing: 2.3 mM NAD^+ and 75 μM androsterone in 0.1M potassium phosphate buffer pH 7.0, with 4% acetonitrile as a co-solvent. Initial rates were determined spectrophotometrically by measuring the rate of NADH formation at 340 nm. Because of the 100 fold or greater dilution of the enzyme into the assay, the initial rate measured is an indication of the enzyme activity remaining at that time. Semi-log plots of the amount of enzyme remaining vs. time are curvilinear (panel a). Initial rates of inactivation (kapp's) were estimated by taking tangents to these curves. Data was replotted as 1/kapp vs 1/allylic alcohol from which kinact (the rate constant for enzyme inactivation) and Ki (the binding constant of the allylic alcohol) were determined, (panel b).
Inactivation of 3α-HSD (24 μM) was conducted in incubations (60 μl) of 10 mM potassium phosphate buffer pH 7.0 containing 1 mM EDTA and 4% acetonitrile as a co-solvent. After the initial enzyme activity was determined (see the legend of FIG. 2 for assay composition), the concentration of inactivator indicated (.cndot.=0 μM, .circle.=2.1 μM, =4.9 μM, .gradient.=10.0 μM, =15.0 μM, []24.0 μM) was added and the sample incubated at 25° C. Over time, samples were withdrawn and diluted into the standard assay to determine the amount of enzyme activity remaining. A secondary plot of the amount of enzyme inactivated vs. the amount of inhibitor added provided the stoichiometry of inactivation when corrected for nonspecific loss of enzyme activity (panel b). The continuous line without points is a theoretical line for a stoichiometry of 1:1.

cyclooxygenase = target: T2, cyclooxygenase (Ovis aries, UniProt P05979); experiment: time dependent inactivation of semi-purified cyclooxygenase (oxygen consumption); format: biochemical, sheep; settings: for inactivation of cyclooxygenase / prostaglandin synthases: result in words
T2 construct: cyclooxygenase obtained from sheep seminal vesicle microsomes; from tissue; host or cells: sheep seminal vesicle microsomes
T2 sequence (P05979 25-600): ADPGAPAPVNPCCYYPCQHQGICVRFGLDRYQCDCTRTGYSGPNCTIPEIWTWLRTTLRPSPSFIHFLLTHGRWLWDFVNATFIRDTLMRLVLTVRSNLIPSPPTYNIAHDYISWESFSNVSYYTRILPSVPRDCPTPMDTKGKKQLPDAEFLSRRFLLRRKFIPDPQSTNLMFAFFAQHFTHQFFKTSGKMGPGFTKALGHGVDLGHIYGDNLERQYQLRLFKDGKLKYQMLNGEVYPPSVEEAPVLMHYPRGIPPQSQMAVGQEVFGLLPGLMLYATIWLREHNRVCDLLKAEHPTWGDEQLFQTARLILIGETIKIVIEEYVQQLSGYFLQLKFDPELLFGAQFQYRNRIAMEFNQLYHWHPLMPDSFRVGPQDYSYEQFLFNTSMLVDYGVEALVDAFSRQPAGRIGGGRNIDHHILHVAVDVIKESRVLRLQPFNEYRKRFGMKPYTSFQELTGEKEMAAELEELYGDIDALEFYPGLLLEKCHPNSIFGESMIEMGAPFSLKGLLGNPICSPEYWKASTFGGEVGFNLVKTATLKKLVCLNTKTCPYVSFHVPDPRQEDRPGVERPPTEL
Protocol: Semi-purified cyclooxygenase (480 μg) was pre-incubated in 100 μl systems containing the inhibitor concentrations indicated, along with 50 mM Tris-HCl (pH=7.2), 100 μM EDTA, 1 mM phenol, 1 μM hematin, 1% Tween, and 10% DMSO. At the time intervals shown, 5 μl aliquots were removed and diluted into a 600 μl assay system containing 100 mM potassium phosphate (pH=7.2), 1 mM phenol, and 100 μM arachidonic acid. The rate of oxygen consumption was then measured. The maximum rate of oxygen uptake observed in these assays was 1.875 μmoles of oxygen consumed per minute per milligram protein.

3α-HSD [4] = target: T1, 3α-HSD; experiment: steady state kinetic measurements and protection from inactivation of 3α-HSD; format: biochemical; settings: for type of inhibition versus NAD+ binding / type of inhibition versus androsterone binding: steady state kinetic measurements
From the text: as §1

[5] = substrate: C#CC(O)c1ccc([N+](=O)[O-])cc1; experiment: enzymatic oxidation of the allylic and acetylenic alcohols by 3α-HSD in the presence of NAD+; format: biochemical, rat; settings: other: oxidation by 3α-HSD in the presence of NAD+; pH 7.0; 25.0 °C
[6] = substrate: C=CC(O)c1ccc([N+](=O)[O-])cc1; experiment: as above; format: biochemical, rat; settings: other: oxidation by 3α-HSD in the presence of NAD+; pH 7.0; 25.0 °C

Molecule: C[C@]12CCC(=O)C[C@@H]1CC[C@@H]1[C@@H]2CC[C@]2(C)[C@@H](OC(=O)CBr)CC[C@@H]12 [17β-bromoacetoxy-5α-androstan-17β-ol-3-one, reference compound]
- binding of the inactivated enzyme to the immobilized nucleotide analog (3α-HSD [1]): bind tightly

Molecule: C=CC(O)c1ccc([N+](=O)[O-])cc1 (stereo not drawn) [I, 1-(4'-nitrophenyl)-2-propen-1-ol]
- selectivity as suicide substrate among the screened enzymes [2]: only rat liver 3α-HSD effectively oxidized the alcohols
- t1/2 life for the enzyme (3α-HSD [3]; at a saturating allylic alcohol concentration): 8 s
- molecules of the allylic alcohol oxidized for every molecule of enzyme inactivated (3α-HSD [3]; comparison of the rate of oxidation with that of enzyme inactivation): ≤ 10 molecules
- partition ratio kcat/kinact (3α-HSD [3]; estimated, theoretical limit 1): 5.3
- return of enzyme activity after inactivation (3α-HSD [3]): enzyme activity does not return
- Ki (3α-HSD [3]; method of Kitz and Wilson, in the presence of NAD+): 1200 µM
- inactivation of 3α-HSD (3α-HSD [3]): highly selective mechanism-based inactivators; also recorded: time-dependent loss of 3α-HSD activity

Molecule: C#CC(O)c1ccc([N+](=O)[O-])cc1 (stereo not drawn) [II, 1-(4'-nitrophenyl)-2-propyn-1-ol]
- selectivity as suicide substrate among the screened enzymes [2]: only rat liver 3α-HSD effectively oxidized the alcohols
- return of enzyme activity after inactivation (3α-HSD [3]): enzyme activity does not return
- inactivation of 3α-HSD (3α-HSD [3]): highly selective mechanism-based inactivators

Molecule: C=CC(=O)c1ccc([N+](=O)[O-])cc1 [III, 1-(4'-nitrophenyl)-2-propen-1-one]
- binding of the inactivated enzyme to the immobilized nucleotide analog (3α-HSD [1]): no affinity
- inactivation of cyclooxygenase / prostaglandin synthases (cyclooxygenase): irreversibly inactivate prostaglandin synthases in a time dependent manner
- inactivation of cyclooxygenase / prostaglandin synthases (cyclooxygenase; listed as iii): time and concentration dependent inactivation
- t1/2 life at saturation (cyclooxygenase; semi-purified cyclooxygenase from sheep seminal vesicle microsomes): 60 to 120 s
- IC50 (cyclooxygenase; semi-purified cyclooxygenase from sheep seminal vesicle microsomes, read-out: concentration required to inactivate 50% of the enzyme activity): 837 µM
- protection of 3α-HSD from inactivation by NAD+ (3α-HSD [4]): complete protection
- protection of 3α-HSD from inactivation by androsterone and other compounds competitive for the steroid binding site (3α-HSD [4]): slow the rate of inactivation but do not completely block this event
- type of inhibition versus NAD+ binding (3α-HSD [4]): competitive inhibitors
- type of inhibition versus androsterone binding (3α-HSD [4]): non-competitive or mixed inhibitors
- inactivation of 3α-HSD (3α-HSD [3]): stoichiometric inactivators; also recorded: too fast to accurately measure; also recorded: rapid and stoichiometric

Molecule: C#CC(=O)c1ccc([N+](=O)[O-])cc1 [IV, 1-(4'-nitrophenyl)-2-propyn-1-one]
- binding of the inactivated enzyme to the immobilized nucleotide analog (3α-HSD [1]): no affinity
- inactivation of cyclooxygenase / prostaglandin synthases (cyclooxygenase): irreversibly inactivate prostaglandin synthases in a time dependent manner
- inactivation of cyclooxygenase / prostaglandin synthases (cyclooxygenase; listed as iv): time and concentration dependent inactivation
- protection of 3α-HSD from inactivation by NAD+ (3α-HSD [4]): complete protection
- protection of 3α-HSD from inactivation by androsterone and other compounds competitive for the steroid binding site (3α-HSD [4]): slow the rate of inactivation but do not completely block this event
- type of inhibition versus NAD+ binding (3α-HSD [4]): competitive inhibitors
- type of inhibition versus androsterone binding (3α-HSD [4]): non-competitive or mixed inhibitors
- inactivation of 3α-HSD (3α-HSD [3]): stoichiometric inactivators; also recorded: rapid and stoichiometric

Molecule: CC(=O)Oc1ccccc1C(=O)O [acetyl salicylate, reference compound]
- cyclooxygenase inactivated (cyclooxygenase; 100 μM, over 20 hours): 50%

B1: 3α-HSD (Rattus norvegicus) (protein)
chain: MDSISLRVALNDGNFIPVLGFGTTVPEKVAKDEVIKATKIAIDNGFRHFDSAYLYEVEEEVGQAIRSKIEDGTVKREDIFYTSKLWSTFHRPELVRTCLEKTLKSTQLDYVDLYIIHFPMALQPGDIFFPRDEHGKLLFETVDICDTWEAMEKCKDAGLAKSIGVSNFNCRQLERILNKPGLKYKPVCNQVECHLYLNQSKMLDYCKSKDIILVSYCTLGSSRDKTWVDQKSPVLLDDPVLCAIAKKYKQTPALVALRYQLQRGVVPLIRSFNAKRIKELTQVFEFQLASEDMKALDGLNRNFRYNNAKYFDDHPNHPFTDE
notes: the purified 3α-HSD of rat liver cytosol; from tissue; host or cells: rat liver (cytosol)
- Vmax [5]: 0.3 µmol/min/mg
- Km [6]: 2020 µM
- Vmax [6]: 0.58 µmol/min/mg
